# Assay results published in ChEMBL document CHEMBL5518196, “Discovery of potent thiazolidin-4-one sulfone derivatives for inhibition of proliferation of osteosarcoma in vitro and in vivo” (Eur J Med Chem, 2024).
# Calls of active or inactive are those of the source. The calls are words filed in the database; no cut-off is given here.
# Assays:
# HOS-TE85 [1] = assay: Antiproliferative activity against human MNNG/HOS cells assessed as inhibition of cell growth incubated for 24 to 72 hrs by CellTiter-Glo luminescent cell viability assay; type: functional, cell-based
# HOS-TE85 [2] = assay: Inhibition of colony formation in human MNNG/HOS cells at 4 uM incubated for 10 days by crystal violet staining based light microscopic analysis; type: functional, cell-based; details: time 10.0 day
# HOS-TE85 [3] = assay: Antitumor activity against human MNNG/HOS cells xenografted in female BALB/c mouse assessed as tumor growth inhibition at 30 mg/kg, po administered twice daily for 23 days relative to control; type: functional; details: HOS-TE85, 552 h, time 23 day, read-out: TGI
# [4] = Half-life in male Wistar rat at 100 mg/kg, po; details: in vivo
# HOS-TE85 [5] = assay: Antiproliferative activity against human MNNG/HOS cells assessed as inhibition of cell growth incubated for 72 hrs by CCK8 assay; type: functional, cell-based; details: HOS-TE85, 72 h
# [6] = Metabolic stability in human liver microsomes assessed as half-life at 0.1 uM preincubated for 10 mins followed by NADPH addition and measured upto 60 mins by LC-MS/MS analysis; type: ADME, Microsome; details: time < 70 min
# [7] = Metabolic stability in human liver microsomes assessed as bioavailability at 0.1 uM preincubated for 10 mins followed by NADPH addition and measured upto 60 mins by LC-MS/MS analysis; type: ADME, Microsome; details: time < 70 min
# [8] = Metabolic stability in mouse liver microsomes assessed as half-life at 0.1 uM preincubated for 10 mins followed by NADPH addition and measured upto 60 mins by LC-MS/MS analysis; type: ADME, Microsome; details: time < 70 min
# 143B = assay: Antiproliferative activity against human 143B cells assessed as inhibition of cell growth incubated for 72 hrs by CCK8 assay; type: functional, cell-based
# SAOS-2 = assay: Antiproliferative activity against human SAOS-2 cells assessed as inhibition of cell growth incubated for 72 hrs by CCK8 assay; type: functional, cell-based; details: SAOS-2, 72 h
# SJSA-1 = assay: Antiproliferative activity against human SJSA-1 cells assessed as inhibition of cell growth incubated for 72 hrs by CCK8 assay; type: functional, cell-based; details: SJSA-1, 72 h
# MGC-803 = assay: Antiproliferative activity against human MGC-803 cells assessed as inhibition of cell growth incubated for 72 hrs by CCK8 assay; type: functional, cell-based; details: MGC-803, 72 h
# MG-63 = assay: Antiproliferative activity against human MG-63 cells assessed as inhibition of cell growth incubated for 72 hrs by CCK8 assay; type: functional, cell-based; details: MG-63, 72 h
# A549 = assay: Antiproliferative activity against human A549 cells assessed as inhibition of cell growth incubated for 72 hrs by CCK8 assay; type: functional, cell-based; details: A549, 72 h
# [9] = Antiproliferative activity against BMSC (unknown origin) assessed as inhibition of cell growth incubated for 72 hrs by CCK8 assay; type: functional, cell-based
# PC-3 = assay: Antiproliferative activity against human PC-3 cells assessed as inhibition of cell growth incubated for 72 hrs by CCK8 assay; type: functional, cell-based; details: PC-3, 72 h
# HOS-TE85 [10] = assay: Potency index, ratio of sorafenib IC50 to test compound IC50 for antiproliferative activity against human MNNG/HOS cells; type: functional
# HOS-TE85 [11] = assay: Inhibition of colony formation in human MNNG/HOS cells incubated for 10 days by crystal violet staining based light microscopic analysis; type: functional, cell-based; details: dose 0.1-0.4 µM, time 10.0 day
# HOS-TE85 [12] = assay: Inhibition of cell migration in human MNNG/HOS cells assessed as reduction in closure rate at 0.2 uM incubated for 24 hrs by wound healing assay; type: functional, cell-based
# [13] = Clearance in male ICR mouse at 12.5 mg/kg, iv measured after 24 hrs by LC-MS/MS analysis; type: ADME, organism-based; details: in vivo
# [14] = Cmax in male ICR mouse at 12.5 mg/kg, iv measured after 24 hrs by LC-MS/MS analysis; type: ADME, organism-based; details: in vivo
# [15] = Half-life in male ICR mouse at 12.5 mg/kg, iv measured after 24 hrs by LC-MS/MS analysis; type: ADME, organism-based; details: in vivo
# [16] = AUC (0 to infinity) in male ICR mouse at 12.5 mg/kg, iv measured after 24 hrs by LC-MS/MS analysis; type: ADME, organism-based; details: in vivo
# [17] = Cmax in male ICR mouse at 62.5 mg/kg, ip measured after 24 hrs by LC-MS/MS analysis; type: ADME, organism-based; details: in vivo
# [18] = Half-life in male ICR mouse at 62.5 mg/kg, ip measured after 24 hrs by LC-MS/MS analysis; type: ADME, organism-based; details: in vivo
# [19] = AUC (0 to infinity) in male ICR mouse at 62.5 mg/kg, ip measured after 24 hrs by LC-MS/MS analysis; type: ADME, organism-based; details: in vivo
# [20] = Bioavailability in male ICR mouse at 62.5 mg/kg, ip measured after 24 hrs by LC-MS/MS analysis; type: ADME, organism-based; details: in vivo
# HOS-TE85 [21] = assay: Antitumor activity against human MNNG/HOS cells xenografted in female BALB/c mouse assessed as tumor growth inhibition at 62.5 mg/kg, ip administered twice daily for 23 days relative to control; type: functional; details: HOS-TE85, 552 h, time 23 day, read-out: TGI
# HOS-TE85 [22] = assay: Antitumor activity against human MNNG/HOS cells xenografted in female BALB/c mouse assessed as reduction in tumor volume at 62.5 mg/kg, ip administered twice daily for 23 days; type: functional, organism-based; details: time 23.0 day
# [23] = Toxicity in female BALB/c mouse xenografted with human MNNG/HOS cells assessed as effect on heart morphology at 62.5 mg/kg, ip administered twice daily for 23 days by Hematoxylin and Eosin staining based analysis; type: organism-based, HOS-TE85; details: in vivo, 552 h, time 23 day
# [24] = Toxicity in female BALB/c mouse xenografted with human MNNG/HOS cells assessed as effect on liver morphology at 62.5 mg/kg, ip administered twice daily for 23 days by Hematoxylin and Eosin staining based analysis; type: organism-based, HOS-TE85; details: in vivo, 552 h, time 23 day
# [25] = Toxicity in female BALB/c mouse xenografted with human MNNG/HOS cells assessed as effect on spleen morphology at 62.5 mg/kg, ip administered twice daily for 23 days by Hematoxylin and Eosin staining based analysis; type: organism-based, HOS-TE85; details: in vivo, 552 h, time 23 day
# [26] = Toxicity in female BALB/c mouse xenografted with human MNNG/HOS cells assessed as effect on kidney morphology at 62.5 mg/kg, ip administered twice daily for 23 days by Hematoxylin and Eosin staining based analysis; type: organism-based, HOS-TE85; details: in vivo, 552 h, time 23 day
# [27] = Toxicity in female BALB/c mouse xenografted with human MNNG/HOS cells assessed as effect on heart weight at 62.5 mg/kg, ip administered twice daily for 23 days; type: organism-based, HOS-TE85; details: in vivo, 552 h, time 23 day
# [28] = Toxicity in female BALB/c mouse xenografted with human MNNG/HOS cells assessed as effect on liver weight at 62.5 mg/kg, ip administered twice daily for 23 days; type: organism-based, HOS-TE85; details: in vivo, 552 h, time 23 day
# [29] = Toxicity in female BALB/c mouse xenografted with human MNNG/HOS cells assessed as effect on spleen weight at 62.5 mg/kg, ip administered twice daily for 23 days; type: organism-based, HOS-TE85; details: in vivo, 552 h, time 23 day
# [30] = Toxicity in female BALB/c mouse xenografted with human MNNG/HOS cells assessed as effect on kidney weight at 62.5 mg/kg, ip administered twice daily for 23 days; type: organism-based, HOS-TE85; details: in vivo, 552 h, time 23 day
# HOS-TE85 [31] = assay: Induction of cell cycle arrest in human MNNG/HOS cells incubated for 24 hrs bby PI/RNase A staining based analysis; type: functional
# HOS-TE85 [32] = assay: Induction of apoptosis in human MNNG/HOS cells at 0.11 to 0.44 uM incubated for 24 hrs by Annexin V-FITC/PI staining based analysis; type: functional, cell-based; details: dose 0.11-0.44 µM
# HOS-TE85 [33] = assay: Induction of apoptosis in human MNNG/HOS cells assessed as effect on Bcl-2 level incubated for 24 hrs by Western blot analysis; type: functional, cell-based
# HOS-TE85 [34] = assay: Induction of apoptosis in human MNNG/HOS cells assessed as effect on Bax level incubated for 24 hrs by Western blot analysis; type: functional, cell-based
# HOS-TE85 [35] = assay: Induction of apoptosis in human MNNG/HOS cells assessed as effect on caspase-3 level incubated for 24 hrs by Western blot analysis; type: functional, cell-based
# HOS-TE85 [36] = assay: Inhibition of p53 protein expression in human MNNG/HOS cells incubated for 24 hrs by Western blot analysis; type: functional, cell-based
# HOS-TE85 [37] = assay: Inhibition of MYOF protein expression in human MNNG/HOS cells incubated for 24 hrs by Western blot analysis; type: functional, cell-based
# HOS-TE85 [38] = assay: Effect on DDX5 protein expression in human MNNG/HOS cells by ABPP assay; type: functional, cell-based
# HOS-TE85 [39] = assay: Antiproliferative activity against human MNNG/HOS cells transfected with DDX5 shRNA assessed as inhibition of cell growth incubated for 72 hrs by CCK8 assay; type: functional, cell-based; details: HOS-TE85, 72 h
compound,measurement,setting,value
CNC(=O)c1cc(Oc2ccc(NC(=O)Nc3ccc(Cl)c(C(F)(F)F)c3)cc2)ccn1 [SORAFENIB],IC50,HOS-TE85 [1],4810 nM
same,inhibition,HOS-TE85 [2],Active
same,inhibition in vivo at 30 mg/kg,HOS-TE85 [3],39.8%
same,half-life,[4],1310 min
COCCCCNC(=O)c1cccc(C2N(c3ncccc3OC)C(=O)CS2(=O)=O)n1 (racemic),IC50,HOS-TE85 [5],217 nM
same,half-life at 0.1 µM,[6],156 min
same,bioavailability at 0.1 µM,[7],59.3%
same,half-life at 0.1 µM,[8],73.8 min
same,IC50,143B,295 nM
same,IC50,SAOS-2,430 nM
same,IC50,SJSA-1,304 nM
same,IC50,MGC-803,394 nM
same,IC50,MG-63,1090 nM
same,IC50,A549,1890 nM
same,IC50,[9],2130 nM
same,IC50,PC-3,4300 nM
same,Ratio IC50,HOS-TE85 [10],~20
same,inhibition,HOS-TE85 [11],Dose-Dependent Effect
same,inhibition,HOS-TE85 [12],Active
same,clearance,[13],126 mL/min/kg
same,Cmax,[14],5420 ng/mL
same,half-life,[15],13.3 min
same,AUC(0-inf),[16],1660 ng·h/mL
same,Cmax,[17],78.3 ng/mL
same,half-life,[18],91.8 min
same,AUC(0-inf),[19],9560 ng·h/mL
same,bioavailability,[20],115%
same,inhibition in vivo at 62.5 mg/kg,HOS-TE85 [21],44.6%
same,Activity,HOS-TE85 [22],Active
same,Activity,[23],Non-Toxic
same,Activity,[24],Non-Toxic
same,Activity,[25],Non-Toxic
same,Activity,[26],Non-Toxic
same,Activity,[27],Non-Toxic
same,Activity,[28],Non-Toxic
same,Activity,[29],Non-Toxic
same,Activity,[30],Non-Toxic
same,Activity,HOS-TE85 [31],inactive
same,Activity,HOS-TE85 [32],inactive
same,Activity,HOS-TE85 [33],inactive
same,Activity,HOS-TE85 [34],inactive
same,Activity,HOS-TE85 [35],inactive
same,inhibition,HOS-TE85 [36],inactive
same,inhibition,HOS-TE85 [37],inactive
same,Activity,HOS-TE85 [38],inactive
same,IC50,HOS-TE85 [39],277 nM
COc1cccnc1N1C(=O)CS(=O)(=O)C1c1cccc(C(=O)NCCCCc2ccccc2)n1 (stereo not given),IC50,HOS-TE85 [5],6 nM
same,half-life at 0.1 µM,[6],2.12 min
same,bioavailability at 0.1 µM,[7],1.94%
same,half-life at 0.1 µM,[8],1.03 min
COCCCCNC(=O)c1cccc(C2N(c3ccccn3)C(=O)CS2(=O)=O)n1 (stereo not given),IC50,HOS-TE85 [5],149 nM
same,half-life at 0.1 µM,[6],90.6 min
same,bioavailability at 0.1 µM,[7],45.8%
same,half-life at 0.1 µM,[8],56.5 min
COCCCCNC(=O)c1cccc(C2N(c3ccc(C)cn3)C(=O)CS2(=O)=O)n1 (stereo not given),IC50,HOS-TE85 [5],262 nM
Cc1ccnc(N2C(=O)CS[C@@H]2c2cccc(C(=O)NCCCCn3cccn3)c2)c1,half-life at 0.1 µM,[6],16.3 min
same,bioavailability at 0.1 µM,[7],13.2%
same,half-life at 0.1 µM,[8],5.36 min
O=C(NCCCCc1ccccc1)c1cccc(C2N(CCc3ccccc3)C(=O)CS2(=O)=O)c1 (stereo not given),IC50,HOS-TE85 [5],> 10000 nM
Cc1ccc(N2C(=O)CS(=O)(=O)C2c2cccc(C(=O)NCCCCc3ccccc3)n2)nc1 (stereo not given),IC50,HOS-TE85 [5],31 nM
